Patent US8487108B2, “Piperidinyl carbamate intermediates for the synthesis of aspartic protease inhibitors” (Vitae Pharmaceuticals, Inc., priority 2005, dated 2013)

target: T1, trypsin-activated recombinant human renin (Homo sapiens, UniProt P00797); assay: Renin fluorescence assay (internally quenched peptide substrate); format: biochemical; conditions: compounds I*
T1 sequence (P00797 67-406): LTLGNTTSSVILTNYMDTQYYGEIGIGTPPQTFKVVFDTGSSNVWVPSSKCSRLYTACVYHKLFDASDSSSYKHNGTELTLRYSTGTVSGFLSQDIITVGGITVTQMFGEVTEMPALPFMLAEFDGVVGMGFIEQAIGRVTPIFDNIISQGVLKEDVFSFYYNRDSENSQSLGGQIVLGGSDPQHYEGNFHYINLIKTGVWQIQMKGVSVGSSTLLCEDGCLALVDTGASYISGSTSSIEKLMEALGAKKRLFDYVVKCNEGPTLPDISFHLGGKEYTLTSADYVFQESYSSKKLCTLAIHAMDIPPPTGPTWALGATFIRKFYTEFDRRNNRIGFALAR
Summary of the method: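 Cleavage of an angiotensinogen-derived DABCYL-quenched peptide by trypsin-activated recombinant human renin (0.2-2 nM final) in 50 mM BES, 150 mM NaCl, 0.25 mg/mL BSA, pH 7.0; compounds 10 μM to 1 nM final. Fluorescence (ex 340/em 495 nm) followed 60-360 min at rt; linear-slope rates give percent inhibition versus uninhibited control.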

IC50, < 1 nM:
COC(=O)NCCO[C@@H](c1cc(Cl)ccc1C)[C@@H]1CCCN(C(=O)NC[C@@H](N)C[C@H]2CCCCOC2)C1 [I*-109a, methyl 2-((R)-((R)-1-((S)-2-amino-3-((R)-oxepan-3-yl)propylcarbamoyl)piperidin-3-yl)(5-chloro-2-methylphenyl)methoxy)ethylcarbamate]
CNC[C@H](CC1CCCCC1)NC(=O)N1CCC[C@@H]([C@@H](OCCNC(=O)OC)c2cc(Cl)ccc2C)C1 [I*-85a, methyl 2-((R)-(5-chloro-2-methylphenyl)((R)-1-((S)-1-cyclohexyl-3-(methylamino)propan-2-ylcarbamoyl)piperidin-3-yl)methoxy)ethylcarbamate]
COC(=O)NCCO[C@@H](c1cccc(F)c1)[C@@H]1CCCN(C(=O)N[C@H](CN)CC2CCCCC2)C1 [I*-4a, methyl 2-((R)-((R)-1-((S)-1-amino-3-cyclohexylpropan-2-ylcarbamoyl)piperidin-3-yl)(3-fluorophenyl)methoxy)ethylcarbamate]
CNC[C@H](CC1CCCC1)NC(=O)N1CCC[C@@H]([C@@H](OCCNC(=O)OC)c2cc(Cl)ccc2C)C1 [I*-60a, methyl 2-((R)-(5-chloro-2-methylphenyl)((R)-1-((S)-1-cyclopentyl-3-(methylamino)propan-2-ylcarbamoyl)piperidin-3-yl)methoxy)ethylcarbamate]
CCNC[C@H](CC1CCCCC1)NC(=O)N1CCC[C@@H]([C@@H](OCCNC(=O)OC)c2cccc(Cl)c2)C1 [I*-88a, methyl 2-((R)-(3-chlorophenyl)((R)-1-((S)-1-cyclohexyl-3-(ethylamino)propan-2-ylcarbamoyl)piperidin-3-yl)methoxy)ethylcarbamate]
COC(=O)NCCO[C@@H](c1cccc(Cl)c1)[C@@H]1CCCN(C(=O)NC[C@@H](N)C[C@H]2CCCCOC2)C1 [I*-68a, methyl 2-((R)-((R)-1-((S)-2-amino-3-((R)-oxepan-3-yl)propylcarbamoyl)piperidin-3-yl)(3-chlorophenyl)methoxy)ethylcarbamate]

IC50, < 50 nM:
CNCC(CC1CCCOC1)NC(=O)N1CCCC(C(O)(CCCNC(=O)OC)c2cccc(F)c2)C1 [I*-54a, methyl (S)-4-(3-fluorophenyl)-4-hydroxy-4-((3R)-1-((S)-1-(methylamino)-3-(tetrahydro-2H-pyran-3-yl)propan-2-ylcarbamoyl)piperidin-3-yl)butylcarbamate]
COC(=O)NCCO[C@@H](c1cccc(Cl)c1)[C@@H]1CCCN(C(=O)N[C@H]2CNC[C@@H]2CC(C)C)C1 (relative stereo) [I*-11a, methyl 2-((R)-(3-chlorophenyl)((R)-1-((3R*,4S*)-4-isobutylpyrrolidin-3-ylcarbamoyl)piperidin-3-yl)methoxy)ethylcarbamate]
COC(=O)NCCO[C@@H](c1cccc(Cl)c1)[C@@H]1CCCN(C(=O)NC[C@@H](N)COc2ccccc2)C1 [I*-38a, methyl 2-((R)—((R)-1-((R)-2-amino-3-phenoxypropylcarbamoyl)piperidin-3-yl)(3-chlorophenyl)methoxy)ethylcarbamate]
CNC[C@H](CC1CCCCC1)NC(=O)N1CCC[C@@H]([C@@H](OCCCC(=O)NC)c2cccc(Cl)c2)C1 [I*-45a, (R)-3-((R)-(3-chlorophenyl)(4-(methylamino)-4-oxobutoxy)methyl)-N—((S)-1-cyclohexyl-3-(methylamino)propan-2-yl)piperidine-1-carboxamide]

IC50, < 10 nM:
CNC[C@H](C[C@H]1CCCOCC1)NC(=O)N1CCC[C@@H]([C@@H](OCCNC(=O)OC)c2cccc(Cl)c2)C1 [I*-98a, methyl 2-((R)-(3-chlorophenyl)((R)-1-((S)-1-(methylamino)-3-((R)-oxepan-4-yl)propan-2-yl-carbamoyl)piperidin-3-yl)methoxy)ethylcarbamate]
CNC[C@H](CC12CC3CC(CC(C3)C1)C2)NC(=O)N1CCC[C@@H]([C@@H](OCCNC(=O)OC)c2cc(F)ccc2F)C1 [I*-152a, methyl 2-((R)-((R)-1-((S)-1-(1-adamantyl)-3-(methylamino)propan-2-ylcarbamoyl)piperidin-3-yl)(2,5-difluorophenyl)methoxy)ethylcarbamate]
CNC[C@H](CC1CCCCC1)NC(=O)N1CCCC[C@@H]([C@@H](OCCNC(=O)OC)c2cccc(Cl)c2)C1 [I*-91a, methyl 2-((R)-(3-chlorophenyl)((R)-1-((S)-1-cyclohexyl-3-(methylamino)propan-2-ylcarbamoyl)azepan-3-yl)methoxy)ethylcarbamate]
CNC[C@@H](NC(=O)N1CCC[C@@H]([C@@H](OCCNC(=O)OC)c2cccc(Cl)c2F)C1)[C@@H](O)C1CCCCC1 [I*-138a, methyl 2-((R)-(3-chloro-2-fluorophenyl)((R)-1-((1S,2R)-1-cyclohexyl-1-hydroxy-3-(methylamino)propan-2-ylcarbamoyl)piperidin-3-yl)methoxy)ethylcarbamate]
CCNC[C@H](CC1CCCCC1)NC(=O)N1CCC[C@@H]([C@@H](OCCNC(=O)OC)c2cccc(F)c2)C1 [I*-41a, methyl 2-((R)-((R)-1-((S)-1-cyclohexyl-3-(ethylamino)propan-2-ylcarbamoyl)piperidin-3-yl)(3-fluorophenyl)methoxy)ethylcarbamate]
CNC[C@H](CC12CC3CC(CC1C3)C2)NC(=O)N1CCC[C@@H]([C@@H](OCCNC(=O)OC)c2cccc(F)c2)C1 [I*-123a, methyl 2-((R)-((3R)-1-((S)-1-(3-noradamantyl)-3-(methylamino)propan-2-ylcarbamoyl)piperidin-3-yl)(3-fluorophenyl)methoxy)ethylcarbamate]
CNC[C@@H](NC(=O)N1CCC[C@@H]([C@@H](OCCNC(=O)OC)c2cccc(F)c2F)C1)[C@@H](O)C1CCCC1 [I*-72a, methyl 2-((R)-((R)-1-((1S,2R)-1-cyclopentyl-1-hydroxy-3-(methylamino)propan-2-ylcarbamoyl)piperidin-3-yl)(2,3-difluorophenyl)methoxy)ethylcarbamate]
CCNC(=O)CO[C@@H](c1cccc(Cl)c1)[C@@H]1CCCN(C(=O)N[C@H](CNC)C[C@H]2CCCCOC2)C1 [I*-61a, (R)-3-((R)-(3-chlorophenyl)(2-(ethylamino)-2-oxoethoxy)methyl)-N-((2S)-1-(methylamino)-3-((R)-oxepan-3-yl)propan-2-yl)piperidine-1-carboxamide]
CNC[C@@H](NC(=O)N1CCC[C@@H]([C@@H](OCCNC(=O)OC)c2cc(Cl)ccc2C)C1)[C@@H](O)C1CCCC1 [I*-107a, methyl 2-((R)-(5-chloro-2-methylphenyl)((R)-1-((1S,2R)-1-cyclopentyl-1-hydroxy-3-(methylamino)propan-2-ylcarbamoyl)piperidin-3-yl)methoxy)ethylcarbamate]

IC50, > 50 nM:
CNC[C@H](CC1CCCCC1)NC(=O)N1CCC[C@@H]([C@H](OCCNC(=O)OC)c2nccs2)C1 [I*-12a, methyl 2-((S)-((R)-1-((S)-1-cyclohexyl-3-(methylamino)propan-2-ylcarbamoyl)piperidin-3-yl)(thiazol-2-yl)methoxy)ethylcarbamate]
CNC[C@@H](CC1(C)CCCCC1)NC(=O)N1CCC[C@@H]([C@@H](OCCNC(=O)OC)c2cccc(F)c2)C1 [I*-42a, methyl 2-((R)-(3-fluorophenyl)((R)-1-((R)-1-(methylamino)-3-(1-methylcyclohexyl)propan-2-ylcarbamoyl)piperidin-3-yl)methoxy)ethylcarbamate]
CNC[C@H](CN1CCCCC1=O)NC(=O)N1CCC[C@@H]([C@@H](OCCNC(=O)OC)c2cccc(Cl)c2)C1 [I*-93a, methyl 2-((R)-(3-chlorophenyl)((R)-1-((R)-1-(methylamino)-3-(2-oxopiperidin-1-yl)propan-2-yl-carbamoyl)piperidin-3-yl)methoxy)ethylcarbamate]
CNCC(C[C@H]1C[C@@H](C)O[C@@H](C)C1)NC(=O)N1CCC[C@@H]([C@@H](OCCNC(=O)OC)c2cccc(Cl)c2)C1 (stereo partly drawn) [I*-132a, methyl 2-((R)-(3-chlorophenyl)((R)-1-((S)-1-((2S,4r,6R)-2,6-dimethyl-tetrahydro-2H-pyran-4-yl)-3-(methylamino)propan-2-ylcarbamoyl)piperidin-3-yl)methoxy)ethylcarbamate]
CNC[C@H](CN1CCCCC1=O)NC(=O)N1CCC[C@@H]([C@@H](OCCNC(=O)OC)c2cccc(F)c2)C1 [I*-46a, methyl 2-((R)-(3-fluorophenyl)((R)-1-((R)-1-(methylamino)-3-(2-oxopiperidin-1-yl)propan-2-ylcarbamoyl)piperidin-3-yl)methoxy)ethylcarbamate]
CNC[C@H](CC1CCOCC1)NC(=O)N1CCO[C@@H]([C@@H](OCCNC(=O)OC)c2cccc(Cl)c2)C1 [I*-75a, methyl 2-((S)-(3-chlorophenyl)((R)-4-((S)-1-(methylamino)-3-(tetrahydro-2H-pyran-4-yl)propan-2-ylcarbamoyl)morpholin-2-yl)methoxy)ethylcarbamate]
